This test addresses T1, Ino-1 (Corynebacterium glutamicum, UniProt Q8NLE6).
T1 construct: His6-tagged (pXMJ19-His6-ino-1), homologous expression in C. glutamicum delta-ino-1, Ni-NTA
The test can be described thus: intrinsic protein fluorescence quenching (Ex […] nm, Em […] nm). The conditions noted are these: read-out: apparent K D. Format: binding.

T1 sequence (Q8NLE6 whole entry): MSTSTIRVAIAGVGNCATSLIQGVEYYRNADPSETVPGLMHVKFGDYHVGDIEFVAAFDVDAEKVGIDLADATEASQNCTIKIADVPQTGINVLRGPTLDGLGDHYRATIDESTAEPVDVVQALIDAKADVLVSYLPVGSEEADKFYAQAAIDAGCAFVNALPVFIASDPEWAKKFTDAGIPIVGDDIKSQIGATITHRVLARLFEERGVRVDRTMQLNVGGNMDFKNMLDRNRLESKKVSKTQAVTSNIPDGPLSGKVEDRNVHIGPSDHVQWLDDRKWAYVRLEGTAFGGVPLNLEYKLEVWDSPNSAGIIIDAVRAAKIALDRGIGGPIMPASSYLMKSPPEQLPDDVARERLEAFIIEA

As for `NC(=O)c1ccc[n+]([C@@H]2O[C@H](COP(=O)(O)OP(=O)(O)OC[C@H]3O[C@@H](n4cnc5c(N)ncnc54)[C@H](O)[C@@H]3O)[C@@H](O)[C@H]2O)c1` [NAD^+], the Kd was 4.7 ± 0.8 µM.
